Test results published in publication PMC11858841, “Intravenous Nanoemulsions Loaded with Phospholipid Complex of a Novel Pyrazoloquinolinone Ligand for Enhanced Brain Delivery” (Pharmaceutics, 2025).
Converted amounts (≈) assume the structure as drawn.

Legend:
[1] = tested on: σ2 receptors; test: PDSP binding study, σ2 receptors; details: versus the other four hits of the primary screen
[2] = Solubility, shake-flask method; type: physicochemical; details: thermodynamic from solid
Description: The solubility of CW-02-79 in selected oils, organic solvents, and water solutions of various pH values was examined by using the shake-flask method, by adding an excess amount of CW-02-79. The blends were mixed on a vortex mixer for 24 h at 25 ± 2 °C to reach equilibrium. The samples were centrifuged (1000× g, 10 min, 25 °C) on a MiniSpin® plus centrifuge (Eppendorf, Hamburg, Germany). The concentration of CW-02-79 was determined after proper dilution of the supernatant with isopropanol using the LC-MS/MS method.
The concentration of CW-02-79 was determined using a LC-MS/MS method. The analysis was performed on a UHPLC chromatograph ACELLA (Thermo Fisher Scientific Inc., Madison, WI, USA), coupled to a triple quadrupole mass spectrometer TSQ Quantum Access MAX (Thermo Fisher Scientific Inc., Madison, WI, USA) with a heated electrospray ionization (HESI) interface. The column was XTerra MS C18 (150 mm × 2.1 mm, […] particle size). The mobile phase was acetonitrile/0.1% formic acid = 70:30 (v/v), the flow rate was 0.2 mL min^−1, the column temperature was set to 35 °C, and the injection volume was 10 µL. CW-02-79 and the internal standard were detected and quantified in the positive HESI mode (m/z = 389.90–345.90 and m/z = 349.00–304.11, respectively).

[3] = In vitro permeation through iPSC-derived blood–brain barrier model; type: in vitro ADME, human; details: inserts without cells; read-out: recovery of CW-02-79 without cells
Description: The in vitro BBB model based on the co-culture of iPSC-derived brain microvascular endothelial cells, astrocytes, and pericytes was used to estimate the transport of CW-02-79 into the brain from the developed nanoemulsions (the protocol used is available on the manufacturer’s website: iCell Blood Brain Barrier Isogenic Kit protocol, FujiFilm Cellular Dynamic Inc., Madison, WI, USA) [24]. Cell culture inserts for BBB co-cultures (pore size 0.4 µm, effective cell growth area 0.33 cm^2, Falcon®, Corning Inc., Salt Lake City, UT, USA) were coated on the apical side with a fibronectin-collagen IV matrix and on the basolateral side with a 0.1% gelatin solution. Then, astrocyte and pericyte suspensions were seeded on the basolateral side, with brain microvascular endothelial cells in the apical region of inserts, followed by overnight incubation at 37 °C and 5% CO2. […]
The total volume on the basolateral side was compensated with 100 µL of the fresh termostated medium. […] The mass balance (%) was also determined based on the amount of CW-02-79 determined in both the apical and basolateral compartments at the end of the assay divided by the total amount of CW-02-79 placed in the apical compartment to assess the potential adsorption to plastic or non-specific binding to cells.

[4] = target: σ2 receptors; design: method as in PDSP Ki database https://pdspdb.unc.edu/databases/kidb.php; details: ref PDSP Ki database https://pdspdb.unc.edu/databases/kidb.php; cited from earlier work
[5] = target: 5-HT7 receptor; design: method as in PDSP Ki database https://pdspdb.unc.edu/databases/kidb.php; details: ref PDSP Ki database https://pdspdb.unc.edu/databases/kidb.php; cited from earlier work
[6] = target: benzodiazepine binding site at GABAA receptors; design: method as in PDSP Ki database https://pdspdb.unc.edu/databases/kidb.php; details: ref PDSP Ki database https://pdspdb.unc.edu/databases/kidb.php; cited from earlier work
[7] = target: histamine H2 receptor; design: method as in PDSP Ki database https://pdspdb.unc.edu/databases/kidb.php; details: ref PDSP Ki database https://pdspdb.unc.edu/databases/kidb.php; cited from earlier work
[8] = target: dopamine transporter; design: method as in PDSP Ki database https://pdspdb.unc.edu/databases/kidb.php; details: ref PDSP Ki database https://pdspdb.unc.edu/databases/kidb.php; cited from earlier work
[9] = tested on: GABAA receptors that contain any of the α1 to α6 subunits; design: method as in personal communication with Dr. Janet Fisher; details: 10 µM; ref personal communication with Dr. Janet Fisher; cited from earlier work
[10] = design: method as in unpublished data, MM Savić and B Divović Matović; details: doses 1 to 30 mg/kg; ref unpublished data, MM Savić and B Divović Matović; cited from earlier work

selectivity for σ2 receptors [1]: ≥ 20 fold | solubility at 24 h ([2]; aqueous buffer, Phosphate buffer, pH 7.4, 25 °C): 11.8 ± 0.7 µg/mL (≈ 30.3 µM) | solubility at 24 h ([2]; oil or lipid, Castor oil, 25 °C): 27.96 ± 0.03 µg/mL (≈ 71.8 µM) | solubility at 24 h ([2]; oil or lipid, Fish oil, 25 °C): 34.19 ± 0.06 µg/mL (≈ 87.8 µM) | solubility at 24 h ([2]; oil or lipid, MCT, 25 °C): 49.93 ± 0.07 µg/mL (≈ 128 µM) | solubility at 24 h ([2]; oil or lipid, MCT:castor oil (1:1, w/w), 25 °C): 218.4 ± 0.3 µg/mL (≈ 561 µM) | solubility at 24 h ([2]; oil or lipid, MCT:soybean oil (1:1, w/w), 25 °C): 41.41 ± 0.04 µg/mL (≈ 106 µM) | solubility at 24 h ([2]; oil or lipid, Soybean oil, 25 °C): 65.68 ± 0.43 µg/mL (≈ 169 µM) | solubility at 24 h ([2]; organic solvent or mixture, DMSO, 25 °C): > 30000 µg/mL | solubility at 24 h ([2]; organic solvent or mixture, Isopropanol, 25 °C): 5750 µg/mL (≈ 14800 µM) | solubility at 24 h ([2]; organic solvent or mixture, Methanol, 25 °C): 939.1 ± 3.53 µg/mL (≈ 2410 µM) | solubility at 24 h ([2]; simulated gastric fluid, 0.1M HCl, 25 °C): 12.3 ± 0.61 µg/mL (≈ 31.7 µM) | solubility at 24 h ([2]; Ultrapure water, 25 °C): 11.8 ± 0.2 µg/mL (≈ 30.2 µM) | recovery at 24 h, 3 µM [3]: ~100%
Compound: COc1ccc2c3nn(-c4ccc(OC(F)(F)F)cc4)c(=O)c-3c[nH]c2c1C [CW-02-79, 7-methoxy-6-methyl-2-(4-(trifluoromethoxy)phenyl)-2,5-dihydro-3H-pyrazolo [4,3-c]quinolin-3-one]
Ki [4]: 0.112 µM | Ki [5]: 2.4 µM | Ki [6]: 4.7 µM | Ki [7]: 5.2 µM | Ki [8]: > 10 µM | modulation of GABAA receptors [9]: does not at all modulate | signs of sedation or motor incapacitation [10]: no signs of sedation or motor incapacitation
